Results as given in US9427433B2, “Methods and compositions for enhancing fertility and/or inhibiting pregnancy failure and restoring glucose tolerance” (Queen's University at Kingston, priority 2011, dated 2016).

Key:
[1] = system: uterine cytokines (IFN-γ, TNFα, IL16, IL12 family and others); test: Cytokine multiplex profiling in uteri at peri-implantation; assay type: in vivo, mouse
From the text: In all untreated or vehicle-treated diabetic mice, an aberrant over-expression of IFN-γ, TNFα and IL16 accounted for the immune-cytotoxicity related implantation failure in these mice.

transplant patients = conditions: cited from earlier work
[2] = humans, single oral dose of 0.5 mg; cited from earlier work
NOD and NZO mice = test: Implantation rate and embryonic/fetal resorption after tacrolimus; assay type: in vivo, mouse; conditions: short-term administration
Protocol: Fifty four NOD mice at the prediabetic and early diabetic stages were carefully selected to match the criteria of being 2 standard deviation heavier in body weight than their age-matched normoglycemic control mice and having blood glucose value of >14.9 mM/1 during the glucose tolerance test. The selected mice were 9 weeks old and were treated with 0.1 mg/kg q2d of tacrolimus (Prograf (5 mg/ml), Astellas) subcutaneously administered in 0.2 ml saline for three weeks after which animals were mated to males of the same strain (See FIG. 1). Vehicle (0.2 ml saline, s.q.) treated hyperglycemic NOD female mice were allowed two weeks in diabetes before they were mated to males of the same strain. […]
Twenty NZO and DIO/B6 female mice were maintained on a high fat diet consisted of 60% kcal fat, 20% kcal protein and 20% kcal carbohydrate, with a total energy mass of 5.24 kcal/gm (D12492, Research Diets Inc.; Cedarlane Laboratories, Burlington, Ontario, Canada) starting at 7 weeks of age and maintained on the diet for a total of 12 weeks of study period during which their weekly body weight changes and non-fasting blood glucose values were recorded. […]

[3] = system: type 2 diabetes NZO mouse model; test: HOMA-IR, HOMA-B and insulin sensitivity index (Si); assay type: in vivo
Protocol: Female mice were administered tacrolimus (0.1 mg/kg or 0.05 mg/kg, n=6/group), vehicle (n=10), pimecrolimus (0.1 mg/kg, n=6) or sirolimus (0.1 mg/kg, n=6) subcutaneously every other day for 3 weeks.
HOMA IR=fasting glucose (mmol/L)×fasting insulin ([…])/22.5 according to the method of Bonora E et al., 2000. Pancreatic β-Cell function (HOMA-B) was calculated according to the method of Tresaco B et al., 2005, HOMA-B=[20×[…]). Insulin sensitivity (Si) was determined according to the method of Matthews D et al., 1985. Si=[basal glucose]−[glucose 15 min]/15).

[4] = system: pregnant diabetic NOD mice; test: Pulse Wave Doppler of uterine arterial blood flow (resistance index); assay type: in vivo, mouse
Protocol: Uterine artery resistive index (RI) was calculated for each vessel according to the equation: RI=(Peak Systolic Velocity−Peak Diastolic Velocity)/Peak Systolic Velocity to assess maternal hemodynamic characteristics of tacrolimus-treated versus the normoglycemic and the vehicle-treated diabetic NOD mice.
Following the procedure described by Mu and Adamson (Am. J. Physiol. Heart Circ. Physiol. 291: H1421-H1428) for comparing patterns of blood flow hemodynamics in the uterine artery, transcutaneous ultrasound biomicroscopy and Doppler waveform recording were collected and analyzed from tacrolimus treated versus the diabetic and obese mice and their normoglycemic control cohort of mated pregnant mice using a microultrasound biomicroscope (Vivo770, Visual Sonic Inc., Toronto, Ontario, Canada) and a 30-40 MHz Real-Time Micro Visualization scanhead transducer operating at two frames per second (RMV704 or 708, VisualSonics Inc). […] Maternal heart and respiration rates were recorded via a physiological controller unit connected to the mechanical platform. […] Systolic and diastolic flow parameters were assessed in the selected point along the course of the uterine artery at 3-5 min intervals and the resistance index (RI=[PSV−EDV]/PSV) was calculated when EDV>0 to measure the pulsatility of arterial blood velocity waveforms.

For C=CC[C@@H]1/C=C(\C)C[C@H](C)C[C@H](OC)[C@H]2O[C@@](O)(C(=O)C(=O)N3CCCC[C@H]3C(=O)O[C@H](/C(C)=C/[C@@H]3CC[C@@H](O)[C@H](OC)C3)[C@H](C)[C@@H](O)CC1=O)[C@H](C)C[C@@H]2OC [tacrolimus], the “anti-inflammatory cytokines IL-1ra, IL10 and IL2 in uteri” value ([1]; diabetes prone mice, FIG. 12) was “inhibition of some anti-inflammatory cytokines such as IL-1ra, IL10 and IL2”, the “cytokines involved in inflammation, T-cell cytotoxicity and blood coagulation” value ([1]; peri-implantation, FIG. 8) was “pan-inhibition of cytokines involved in inflammation, T-cell cytotoxicity and blood coagulation” and the “uterine expression of MCP1, MCP5, MIG9, RANTES, SDF-1, KC” value ([1]; peri-implantation, FIG. 9) was “significantly downregulated the uterine expression of six major IFN-γ-regulated inflammatory cytokines”. For the same compound, the “Th1-induced cytokines (IFN-γ, IL16, TNFα, IL12 family) in uteri” value ([1]; short-term administration prior to mating, peri-implantation) was “significant inhibition of the vast majority of Th1-induced cytokines”, the “IL12 family cytokines in uteri” value ([1]; time of implantation, FIG. 7F) was “downregulating members of IL12 family cytokines” and the “IL5, IL7 and IL13 expression in uteri” value ([1]; time of implantation, FIG. 11) was “restored normalized levels of IL5, IL7 and IL13 expression”. For the same compound, the “safety of use during pregnancy” value (transplant patients) was “safe drug for use during pregnancy”, the maximal blood concentration [2] was 4.6 ng/mL and the “rates of embryonic and fetal resorption” value (NOD and NZO mice) was “reduced rates of embryonic and fetal resorption”. The implantation rate (NOD and NZO mice; pregnancy days 4.5 and 6.5) was “enhanced implantation rate”, the “insulin resistance (HOMA-IR)” value ([3]; p<0.001 vs vehicle) was “significantly reduced insulin resistance” and the “insulin sensitivity (Si)” value ([3]; p<0.01 vs vehicle) was “enhanced insulin sensitivity”. The “pancreatic β-cell function (HOMA-B)” value ([3]; p<0.05 vs vehicle) was “enhanced pancreatic β-cell function”, the “treated pregnant diabetic mice with sustained decidual arteriolar flow velocity and normalized vascular resistance to uterine blood flow” value ([4]; Doppler waveform, p<0.05 vs vehicle-treated diabetic mice) was 88% and the uterine arterial hemodynamics ([4]; throughout pregnancy) was “improved uterine arterial hemodynamics”.
